Patent US20180235213A1, “PLANT HORMONE APPLICATION” (The State of Israel Ministry of Agriculture & Rural …, priority 2015, published 2018)

How the values were obtained:
Koroneiki olives = assay: EGO10 collar and granules application to Koroneiki olives; assay type: in vivo, Olea europaea L.; conditions: collar of 50 μM
Method: Since Koroneiki olives are one of the most abundant cultivars worldwide, the effect of application of collar of 50 μM and granules that release 3×10^−8 M on development of side branches in this cultivar was examined.

Picual olives = assay: Application of strigolactone analogs by irrigation to olive seedlings; assay type: in vivo, Olea europaea L.; conditions: irrigation to roots twice a week for 6 weeks, 0.03 and 0.3 μM, vs control
Method: The effect of application of various analogues of strigolactone (SL) on olives, given to roots by irrigation was examined. Three different SL analogs; […] The seedlings were rooted from cuttings and hardened, and were about 6 months old at the time of the experiment. Growth soil mixture was used as in the nursery. Each strigolactone analog was dissolved in acetone to give a 5.6 mM solution. This solution was then further diluted with distilled water to 0.03 and 0.3 μM. The diluted solution was injected to the roots twice a week for 6 weeks, and subsequently all the growing buds were counted. For each treatment (treated and control groups) 10 plants were measured. Experiments were repeated three times.

[1] = system: Orobanche aegyptiaca seeds; assay: Orobanche Germination Assay (biological activity after stress treatments); assay type: in vivo; conditions: with vs without HPC
Method: The implementation of the strigolactone analogs necessitates a degree of material stability, to ensure their activity on the plant under various growth conditions. Accordingly, the stability of the strigolactone analog GR24 was tested under different environmental conditions. GR24 in acetone stock solution of 5.6 mM was diluted in double distilled water (DDW) or HPC pre-made gel to a concentration of 0.56 μM in eppendorf tubes and was subjected to the following treatments:
GR24 solutions of 0.56 μM, diluted either in DDW or in HPC pre-made gel in eppendorf tubes were incubated in a dry block heater at temperatures of 4° C., 20° C., 40° C., 60° C. digitally set for periods of 3 h, 1 d, 2 d, 4 d, 5 d and 7 d under ambient light.
GR24 solutions of 0.56 μM, diluted either in DDW or in HPC pre-made gel, each in quartz tubes (15 replicates for each treatment) were exposed to UV radiation of λ=312 nm under UV lamp of 600 or 857 μE intensity for periods of 15 min, 30 min or 18 h.
Biological activity was determined by Orobanche Germination Assay: Approximately 30 to 50 seeds of Orobanche aegyptiaca were spread on a glass fiber filter paper disk (9-mm diameter) and put into sterile petri dishes (9-cm diameter) lined with Whatman filter paper wetted with 3 mL of demineralized water. Petri dishes were sealed with parafilm and incubated at 27° C. for preconditioning. After one week of preconditioning period, the glass fiber filter paper disks with Orobanche seeds were removed from the petri dish and dried for 20 min to remove surplus moisture. The disks were transferred to another petri dish within a filter paper ring (outer diameter of 9 cm; inner diameter of 8 cm) wetted with 0.9 mL of water, which maintained a moist environment during the germination bioassay. Forty microliters of the GR24 test solutions were added to the disks. Untreated GR24 at a 0.56 μM concentration was used as a positive control, water or HPC pre-made gel as negative controls. Germination percent was calculated using the counter cell analysis of the IMAGEJ (http://www.//rsbweb.nih.gov/ij/) software. Germinated seeds were distinguished from non-germinated seeds according to the seedling radicles, which are a few millimeters long and visible under a stereomicroscope (Leica MZFLIII, Leica Microsystems, GmbH).
For each of the GR24 treatments fifteen replicates with 30-40 seeds were tested per treatment with 40 μl of 0.56 μM GR24 test solutions pre-treated as described above. The experiment was repeated three times (n=450 seeds).
Next, GR24 was stabilized with Hydroxypropyl Cellulose (HPC), which is a […] medium. Granular HPC [Sigma-Aldrich Israel Ltd., CAS-No. 9004-64-2] […]

Hypericum plants = assay: EGO10 collar and granules application to Hypericum plants; assay type: in vivo, Hypericum calycinum or Hypericum perforatum
Method: EGO10 (25 and 50 μM) with HPC+glycerin were applied in rigid tubes, as described above (Example 13) to Hypericum calycinum or Hypericum perforatum (Ivory Spices of Danziger, result of breeding for ornamental). Two replicates on experiments were done in the greenhouse. EGO10 was applied at the indicated concentrations as a collar. Also, EGO10 was applied in another, new way of application—as granules of slow release of 3×10^−8 M—that were applied in the soil, close to the root zone. […] An example to the results of the collar treatment is in FIG. 27.

[2] = system: Tomato (Shirez, Ikram cultivars); assay: EGO10 collar, irrigation and granules application to greenhouse tomato; assay type: in vivo, Solanum lycopersicum; conditions: for side branches: collar of 500 μM; for side branch weight: collars 25 and 50 μM
Source text: Greenhouse tomato (Shirez, Ikram and other cultivars) are one of the crops that necessitate vast investment in the constant trimming of side branches. Hand labor is needed for this trimming, on an everyday basis, to avoid significant yield loses. The constant trimming is a cause for infection at trimming sites. […] For these experiments two cultivars of greenhouse tomato were used, Ikram and Shirez, both vigorously producing side branches that should be trimmed under commercial growth conditions.
Also, treatments that include irrigation with 3×10^−6 M (once a week for 6 weeks, 5 ml) and granules application (controlled release at that same concentration of 3×10^−6 M) were applied. Each treatment consisted of 20 plants, blocks of 4 plants were randomly distributed in the greenhouse.
Following, and to increase the possible effect of EGO10 on tomato branching, additional experiment was performed with tomato plants were treated with collar of 500 μM EGO10.

Structure (SMILES): CC1=C[C@H](O/C=C2\Cc3c(n(C)c4ccccc34)C2=O)OC1=O [EGO10]
- side branches development (Koroneiki olives): effective in preventing side branches development
- number of growing buds / lateral branches (Picual olives): repressing effect on axillary branch growth similar to that of GR24
- Orobanche germination % with HPC at 60° C. ([1]; 60° C., 0 and 24 hours): increased biological activity
- Orobanche germination % with HPC at different pH ([1]; basic and acidic pH (pH 4, pH 7, pH 10)): increased biological activity
- no. of axillary branches (Hypericum plants; 50 μM as collar in Eppendorf tubes, not significantly different): marked reduction in the no. of axillary branches
- no. of axillary branches (Hypericum plants; granules of slow release of 3×10^−8 M in the soil): did not result with substantial changes in the no. of axillary branches
- yield determined as number of fruit ([2]; Ikram, EGO10 treated plants): increased
- side branches ([2]; Ikram): significant reduction in side branches
- side branch weight ([2]; Ikram): reduced to some extent branching
- side branches ([2]; Shirez): did not respond
- side branch weight ([2]; Shirez, irrigation, granules): did not change significantly branching
